Measured values reported in PMC8346900 (Proceedings of the National Academy of Sciences of the …, 2021).
“Also recorded” adds a separate entry of the source.

How the values were obtained:
[1] = system: CaMKIIα Thr286 autophosphorylation; assay: Thr286 autophosphorylation by Western blot in cultured cortical neurons; type: cell-based, mouse; details: 1 h, HOCPCA 3 mM
[2] = system: CaMKIIα (mouse brain slices); assay: In vitro autoradiography on Camk2a and Camk2b +/+ and -/- mouse brain slices; type: binding
[3] = target: CaMKIIβ/γ/δ subtypes; CaMKIIα Δhub (Rattus norvegicus, UniProt P11275); type: binding; details: HEK293T cells transiently expressing Δhub
[4] = system: CaMKIIβ/γ/δ subtypes; CaMKIIα Δhub; type: binding, rat; details: heterologously expressed in HEK293T cells
CaMKIIα WT hub = target: T1, CaMKIIα WT hub (Homo sapiens, UniProt Q9UQM7); assay: Thermal shift assay by differential scanning fluorimetry; type: binding; details: saturating concentrations, pH 6
T1 sequence (Q9UQM7 345-475): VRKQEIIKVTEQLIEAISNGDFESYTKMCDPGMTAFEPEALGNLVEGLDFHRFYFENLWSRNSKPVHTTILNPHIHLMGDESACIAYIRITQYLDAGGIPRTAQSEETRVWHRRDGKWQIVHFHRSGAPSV

recombinant CaMKIIα = recombinant CaMKIIα (Homo sapiens, UniProt Q9UQM7); assay: ADP-Glo assay, syntide-II phosphorylation; type: biochemical; details: fixed concentration of CaM, wide concentration span
[5] = Body temperature recordings in mice; type: in vivo, mouse; details: C57/B6 mice, i.p.; GHB 275 mg/kg, HOCPCA 175 mg/kg
GABAB receptors = details: cited from earlier work
[6] = target: T2, CaMKIIα wild-type (WT) hub protein (Homo sapiens, UniProt Q9UQM7); assay: Intrinsic tryptophan fluorescence; type: binding; details: increasing concentrations
T2 sequence (Q9UQM7 345-475): T1 sequence (Q9UQM7 345-475)

cortical neurons = assay: Glu/Gly excitotoxicity in cultured cortical neurons, LDH release; type: cell-based, mouse
hippocampal neurons = assay: Glu excitotoxicity in cultured hippocampal neurons, live/dead staining; type: cell-based, mouse; details: for Cell survival after Glu: Camk2a-/- neurons
[7] = system: mouse hippocampal slices (CA3–CA1); assay: Ex vivo LTP recordings in hippocampal slices; details: bath application, 100 μM, 100 Hz induction
C57/B6 mice = assay: Photothrombotic stroke model of focal ischemia
[8] = 175 mg/kg at 3, 6, 12 h poststroke

Sequence of recombinant CaMKIIα (Q9UQM7 whole entry): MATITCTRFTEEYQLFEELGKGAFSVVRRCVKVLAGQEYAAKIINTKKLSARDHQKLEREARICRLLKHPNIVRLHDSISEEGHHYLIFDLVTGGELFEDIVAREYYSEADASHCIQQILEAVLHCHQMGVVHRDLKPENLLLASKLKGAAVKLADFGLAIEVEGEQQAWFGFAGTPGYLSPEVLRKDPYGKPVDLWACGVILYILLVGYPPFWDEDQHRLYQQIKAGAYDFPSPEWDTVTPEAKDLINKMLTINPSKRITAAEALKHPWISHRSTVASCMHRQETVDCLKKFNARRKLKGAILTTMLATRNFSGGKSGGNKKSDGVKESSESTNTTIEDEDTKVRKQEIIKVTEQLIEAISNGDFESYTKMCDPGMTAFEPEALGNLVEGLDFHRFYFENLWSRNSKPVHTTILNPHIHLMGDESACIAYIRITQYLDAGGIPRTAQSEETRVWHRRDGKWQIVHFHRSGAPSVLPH
Sequence of CaMKIIβ/γ/δ subtypes; CaMKIIα Δhub (Rattus norvegicus, UniProt P11275) (P11275 1-337, stated change not applied): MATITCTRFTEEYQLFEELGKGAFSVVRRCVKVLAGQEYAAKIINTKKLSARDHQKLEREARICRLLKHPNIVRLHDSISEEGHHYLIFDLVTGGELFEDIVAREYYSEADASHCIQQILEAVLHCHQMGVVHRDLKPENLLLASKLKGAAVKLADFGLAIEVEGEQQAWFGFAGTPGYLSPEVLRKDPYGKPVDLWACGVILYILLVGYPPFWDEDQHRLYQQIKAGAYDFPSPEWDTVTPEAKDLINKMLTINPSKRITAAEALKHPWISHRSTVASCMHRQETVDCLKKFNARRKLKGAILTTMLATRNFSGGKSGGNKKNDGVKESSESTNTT

For COc1ccc(S(=O)(=O)N(CCO)c2ccccc2CN(C)C/C=C/c2ccc(Cl)cc2)cc1 [KN93, reference compound], the Thr286 autophosphorylation ([1]; basal conditions) was “significant inhibition”.

With [3H]C1(O)C=C(C(=O)O)CC1 (stereo not drawn) [[3H]HOCPCA] the “Binding to brain slices from Camk2a-/- mice” value [2] was “complete lack of binding”, the “Binding to brain tissue of Camk2a+/+, Camk2b+/+ and Camk2b-/- mice” value [2] was “intact binding” and the “Binding to CaMKIIα hub deletion mutant (Δhub)” value [3] was “complete absence”. For the same molecule, the “Binding to CaMKIIβ/γ/δ subtypes” value [4] was “no [^3H]HOCPCA binding was observed”.

For O=C(O)CCCO [GHB, γ-hydroxybutyrate, reference compound], the “maximum Tm increase (maximum ∆Tm)” value (CaMKIIα WT hub) was 13 °C, the “Effect on syntide phosphorylation by CaMKIIα” value (“Effect … by CaMKIIα” below) (recombinant CaMKIIα) was “no effect” and the “Effect on body temperature” value [5] was “strong hypothermia”. The Ki (GABAB receptors; GABAB receptors) was 230 µM.

In the case of KRPPKLGQIGRSKRVVIEDDR [CN21], the “Effect … by CaMKIIα” value (recombinant CaMKIIα) is reported as “concentration-dependent inhibition”.

With O=C(O)C1=CC(O)CC1 (stereo not drawn) [HOCPCA, 3-hydroxycyclopent-1-enecarboxylic acid] the “Quenching of Trp403 fluorescence” value [6] was “not seen”, the “maximum Tm increase (maximum ∆Tm)” value (CaMKIIα WT hub) was 15 °C and the “Effect … by CaMKIIα” value (recombinant CaMKIIα) was “no effect”. For the same molecule, the Thr286 autophosphorylation ([1]; Ca2+-stimulated conditions) was “did not affect”, the Thr286 autophosphorylation ([1]; basal conditions) was “did not affect” and the “Cell survival (LDH)” value (cortical neurons; 1 mM applied immediately or 30 min after Glu stimulation) was “did not have any effect”. For the same molecule, the “Cell death (LDH)” value (cortical neurons; applied 1 h after Glu stimulus, concentration dependent (0.1 to 3 mM)) was “significantly reduced cell death”, the “mean recovery compared with the Glu-only condition (live/dead ratio)” value (hippocampal neurons; Camk2a+/+ neurons, trend, not significant) was 18% and the “Cell survival after Glu” value (hippocampal neurons) was “neither tat-CN21 nor HOCPCA improved cell survival”. For the same molecule, the Cell live/dead ratio (hippocampal neurons; FvB hippocampal cultures, 1 mM, 1 h poststimulation, 400 μM Glu) was “significantly increased”, the “Effect on body temperature” value [5] was “no hypothermia” and the “Affinity to native GABAB receptors” value (GABAB receptors; at 1 mM) was “no affinity; also recorded: lack affinity”. The “Long-term potentiation (LTP)” value [7] was “did not inhibit”, the “Forelimb asymmetry in the cylinder test” value (C57/B6 mice; [8]) was “improvements” and the “Motor coordination, paw placement on grid-walking task” value (C57/B6 mice; [8]) was “improvements”. For the same molecule, the “reduction in infarct volume” value (C57/B6 mice; 175 mg/kg at 3, 6, and 12 h poststroke, measured 7 d poststroke, young male mice) was 40 to 50%, the “Transport of neuroanatomical tracer biotinylated dextran amine” value (C57/B6 mice; 175 mg/kg i.p., 14 days post-stroke) was “reversal of the stroke-induced decrease” and the “Compound action potentials (CAPs), corpus callosum” value (C57/B6 mice; 175 mg/kg single treatment 3 h poststroke, 14 d poststroke) was 50 to 60 % of control. The “Treatment effect of single dose” value (C57/B6 mice; aged female mice, 175 mg/kg) was “significant treatment effects” and the “Treatment effect of single dose” value (C57/B6 mice; young males, 90 mg/kg, 3 h poststroke) was “significant treatment effects”.

In the case of “GRKKRRQRRRKRPPKLGQIGRSKRVVIEDDR [tat-CN21, reference compound]”, the “Cell death (LDH)” value (cortical neurons; tat-CN21 control (10 μM)) is reported as “significantly reduced cell death”, the “Live/dead ratio after Glu” value (hippocampal neurons; Camk2a+/+ neurons) is reported as “significantly improved” and the “Cell survival after Glu” value (hippocampal neurons) is reported as “neither tat-CN21 nor HOCPCA improved cell survival”.
